Assay [1] concerns TsH1. As to the kind of experiment: Compound was evaluated for the growth inhibition of TsH1 cells in an enriched eagles minimal essential medium, medium lacking aspartic acid and asparagine at a concentration of 0.01 mg/mL (0.03 mM); Medium growth. The assay is classed as functional, cell-based. The note with it: Cricetulus griseus.
The test system of assay [2] is TsH1. Put plainly: Compound was evaluated for the growth inhibition of TsH1 cells in an enriched eagles minimal essential medium, medium lacking aspartic acid at a concentration of 0.04 mg/mL (0.13 mM); Heavy growth. It counts as functional, cell-based. The note with it: Cricetulus griseus.
Assay [3] has as its system TsH1. Put plainly: Compound was evaluated for the growth inhibition of TsH1 cells in an enriched eagles minimal essential medium, complete medium at a concentration of 1.0 mg/mL (3.27 mM); Cells dead. The following applies: Cricetulus griseus. The assay is classed as functional, cell-based.
The subject of assay [4] is TsH1. Put plainly: Compound was evaluated for the growth inhibition of TsH1 cells in an enriched eagles minimal essential medium, complete medium at a concentration of 0.04 mg/mL (0.13 mM); Heavy growth. It counts as functional, cell-based. The following applies: Cricetulus griseus.
Assay [5] concerns TsH1. Put plainly: Compound was evaluated for the growth inhibition of TsH1 cells in an enriched eagles minimal essential medium, medium lacking aspartic acid at a concentration of 0.2 mg/mL (0.65 mM); Light growth. The assay is classed as functional, cell-based. The note with it: Cricetulus griseus.
Assay [6] relates to TsH1. Put plainly: Compound was evaluated for the growth inhibition of TsH1 cells in an enriched eagles minimal essential medium, medium lacking aspartic acid and asparagine at a concentration of 0.2 mg/mL (0.65 mM); Cells dead. It counts as functional, cell-based. The note with it: Cricetulus griseus.
In assay [7] the test system is TsH1. Put plainly: Compound was evaluated for the growth inhibition of TsH1 cells in an enriched eagles minimal essential medium, complete medium at a concentration of 0.2 mg/mL (0.65 mM); Light growth. It counts as functional, cell-based. The note with it: Cricetulus griseus.
Assay [8] relates to TsH1. Put plainly: Compound was evaluated for the growth inhibition of TsH1 cells in an enriched eagles minimal essential medium, medium lacking asparagine at a concentration of 0.2 mg/mL (0.65 mM); Cells dead. It counts as functional, cell-based. The following applies: Cricetulus griseus.
The target in assay [9] is T1, Asparagine synthetase [glutamine-hydrolyzing] (Rattus norvegicus) (UniProt P49088).
T1 sequence (whole entry): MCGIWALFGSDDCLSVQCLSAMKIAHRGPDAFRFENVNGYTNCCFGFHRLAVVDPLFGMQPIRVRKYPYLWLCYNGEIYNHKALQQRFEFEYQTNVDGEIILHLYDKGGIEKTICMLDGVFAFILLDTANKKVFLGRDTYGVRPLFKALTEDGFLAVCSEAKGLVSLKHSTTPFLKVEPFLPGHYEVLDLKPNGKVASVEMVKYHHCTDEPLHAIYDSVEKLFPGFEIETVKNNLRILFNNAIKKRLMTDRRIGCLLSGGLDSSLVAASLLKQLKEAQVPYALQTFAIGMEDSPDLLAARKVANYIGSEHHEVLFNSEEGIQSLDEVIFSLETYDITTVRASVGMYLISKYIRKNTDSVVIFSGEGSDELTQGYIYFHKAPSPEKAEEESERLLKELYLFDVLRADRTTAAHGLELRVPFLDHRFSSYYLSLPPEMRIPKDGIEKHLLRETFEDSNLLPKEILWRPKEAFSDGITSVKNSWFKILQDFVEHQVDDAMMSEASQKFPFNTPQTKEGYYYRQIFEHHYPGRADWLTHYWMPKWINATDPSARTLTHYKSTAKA
Put plainly: Inhibition of asparagine synthetase from partially purified rat Novikoff hepatoma at a final concentration of 1 mM.

Assay [10] concerns TsH1. Put plainly: Compound was evaluated for the growth inhibition of TsH1 cells in an enriched eagles minimal essential medium, medium lacking asparagine at a concentration of 1.0 mg/mL (3.27 mM); Cells dead. The following applies: Cricetulus griseus. The assay is classed as functional, cell-based.
The subject of assay [11] is TsH1. As to the kind of experiment: Compound was evaluated for the growth inhibition of TsH1 cells in an enriched eagles minimal essential medium, medium lacking aspartic acid at a concentration of 0.01 mg/mL (0.03 mM); Heavy growth. It counts as functional, cell-based. The note with it: Cricetulus griseus.
The subject of assay [12] is TsH1. As to the kind of experiment: Compound was evaluated for the growth inhibition of TsH1 cells in an enriched eagles minimal essential medium, medium lacking aspartic acid at a concentration of 1.0 mg/mL (3.27 mM); Cells dead. It counts as functional, cell-based. The note with it: Cricetulus griseus.
For assay [13], the system named is TsH1. As to the kind of experiment: Compound was evaluated for the growth inhibition of TsH1 cells in an enriched eagles minimal essential medium, medium lacking aspartic acid and asparagine at a concentration of 1.0 mg/mL (3.27 mM); Cells dead. The assay is classed as functional, cell-based. The note with it: Cricetulus griseus.
In assay [14] the test system is TsH1. Put plainly: Compound was evaluated for the growth inhibition of TsH1 cells in an enriched eagles minimal essential medium, medium lacking asparagine at a concentration of 0.04 mg/mL (0.13 mM); Heavy growth. The assay is classed as functional, cell-based. The note with it: Cricetulus griseus.
Assay [15] relates to TsH1. As to the kind of experiment: Compound was evaluated for the growth inhibition of TsH1 cells in an enriched eagles minimal essential medium, medium lacking aspartic acid and asparagine at a concentration of 0.04 mg/mL (0.13 mM); Heavy growth. The following applies: Cricetulus griseus. It counts as functional, cell-based.
In assay [16] the test system is TsH1. As to the kind of experiment: Compound was evaluated for the growth inhibition of TsH1 cells in an enriched eagles minimal essential medium, complete medium at a concentration of 0.01 mg/mL (0.03 mM); Heavy growth. The assay is classed as functional, cell-based. The following applies: Cricetulus griseus.
Assay [17] concerns TsH1. As to the kind of experiment: Compound was evaluated for the growth inhibition of TsH1 cells in an enriched eagles minimal essential medium, medium lacking asparagine at a concentration of 0.01 mg/mL (0.03 mM); Heavy growth. The assay is classed as functional, cell-based. The following applies: Cricetulus griseus.
The target in assay [18] is T1, Asparagine synthetase [glutamine-hydrolyzing] (Rattus norvegicus). As to the kind of experiment: Inhibition of asparagine synthetase from partially purified rat Novikoff hepatoma at a final concentration of 2 mM.

Molecules are shown by their SMILES.

Usually inhibition stands for the drop in the measured response relative to a control, in per cent.

Consider `NC(CNC(=O)CBr)C(=O)O` (stereo not drawn), for which the Growth inhibition entry in [1] is “Medium Growth”; in assay [2], “Heavy Growth”; in [3], “Not toxic”; in assay [4], “Heavy Growth”; in assay [5], “Light growth”; in [6] it was “Not toxic”. Moreover, the Growth inhibition result is “Light growth” in assay [7]; “Not toxic” in [8]; “Not toxic” in [10]; “Heavy Growth” in assay [11]; “Not toxic” in assay [12]; “Not toxic” in assay [13]. For the same compound, the Growth inhibition entry in assay [14], in assay [15], in assay [16] and in [17] was “Heavy Growth” in each case. The inhibition in assay [9] amounted to 93%.

Take `CC(=O)NCC(N)C(=O)O` (stereo not drawn): the inhibition in assay [18] was found to be 0%.

The values above are taken from ChEMBL document CHEMBL1121869, “Potential inhibitors of L-asparagine biosynthesis. 5. Electrophilic amide analogues of (S)-2,3-diaminopropionic acid” (J Med Chem, 1981).
